Where a SMILES comes first, the peptide text is derived from it. [ ]: non-standard residue; d: D form. dLac(3-vinyl) = C=CC[C@@H](O)C(=O)O; dHica = CC(C)C[C@@H](O)C(=O)O; NMeV = CN[C@H](C(=O)O)C(C)C; NMeA = CN[C@@H](C)C(=O)O; βAla = NCCC(=O)O
Key:
osteoclasts [1] = assay: Effect on the morphology and survival of osteoclasts; type: cell-based, mouse
osteoclasts [2] = assay: Actin ring assay; type: cell-based, mouse
Procedure: In order to observe the formation and shape of actin rings, which function to support the cytoskeleton structure of osteoclasts, an actin ring assay was performed. After removing culture medium, osteoclasts cultured in the presence or absence of destruxin E were fixed with formalin for 10 mins, washed once with a solution containing Tween 20, and treated with 300 U rhodamine phalloidin (Sigma, USA) dissolved in methanol in a dark room.

osteoclasts [3] = assay: Pit formation assay (bone resorption by osteoclasts on bone fragments); type: cell-based, mouse; set-up: Inhibitory Activity versus pit formation: unit not given here
Procedure: Since most osteoclasts growing on bone surfaces have the ability to absorb bone, leaving pits, whether the osteoclasts prepared in Example 1 have bone resorption ability or was not determined by analyzing the number and volume of pits.
Bone fragments were prepared in a thickness of 1 mm, put in methanol, disinfected under UV light on a clean bench, and then transferred to wells of a 96-well plate, after which 100 μl α-MEM medium (10% FCS) was added. […] After incubation for 1 day, bone fragments and osteoclasts growing on them were observed micoscopically and then stored at 4° C.

[4] = system: ^45Ca-labelled fetal radius and ulna, organ culture; assay: Inhibition of ^45Ca release in mouse organ culture (PTH-induced calcium release); type: cell-based, ddY mice
Procedure: 15 to 16 days pregnant ddY mice were injected subtaneously with a solution of ^45Ca-labelled calcium chloride to label their bone. After one day, mice were anesthetized with ether, and disinfected in 70% ethanol. Fetuses were obtained from, and transferred to a sterile dish. Under a stereo microscope, after cutting forelegs and peeling off skin thereof, attached muscle was removed from radius and ulna, and cartilage portions existing at the both ends of the two bones were then obtained. During the preparation, the bones were kept moist. Before culturing, a stainless steel membrane was put into a 24-well plate containing 0.5 mL BGJb medium (Gibco, USA), and the obtained bone was then placed onto the membrane. After incubation for 24 hours, bone was transferred to destruxin E-containing medium and further incubated for 72 hours. Herein, parathyroid hormone (PTH) inducing release of calcium was used, and the inhibitory effect of destruxin E on the calcium release by PTH was analyzed. The amounts of ^45Ca remaining in bone and released to medium were measured using 5% TCA, and bone-resorbing activity was calculated as follows.
Bone-resorbing activity=released amount of ^45Ca to medium/(released amount of ^45Ca to medium+amount of ^45Ca remaining in bone)×100

Molecule | MIC: Minimum Inhibitory Concentration at which survival of all osteoclasts is inhibited (osteoclasts [1]) [µM] | Inhibitory Activity versus actin ring (%) (osteoclasts [2]; 0.1 μM destruxin B) | Inhibitory Activity versus actin ring (%) (osteoclasts [2]; 0.5 μM destruxin B) | Inhibitory Activity versus actin ring (%) (osteoclasts [2]; 1 μM destruxin B) | Inhibitory Activity versus actin ring (%) (osteoclasts [2]; 5 μM destruxin B) | IC50 (osteoclasts [2]; read-out: 50% inhibition (IC50) of actin ring formation) [nM] | Inhibitory Activity versus pit formation (osteoclasts [3]; 0.1 μM destruxin B) | Inhibitory Activity versus pit formation (osteoclasts [3]; 0.5 μM destruxin B) | Inhibitory Activity versus pit formation (osteoclasts [3]; 1 μM destruxin B) | Inhibitory Activity versus pit formation (osteoclasts [3]; 5 μM destruxin B) | IC50 (osteoclasts [3]; read-out: 50% inhibition (IC50) of pit formation) [nM] | Inhibitory effect on ^45Ca release, destruxin E compared with eel calcitonin [4]
CC[C@H](C)[C@@H]1NC(=O)[C@@H]2CCCN2C(=O)[C@@H](CC(C)C)OC(=O)CCNC(=O)[C@H](C)N(C)C(=O)[C@H](C(C)C)N(C)C1=O [Destruxin B] (cyclo([dHica]PI[NMeV][NMeA][βAla])) | 10 | 12 | 41 | 92 | 100 | 600 | 25 | 71 | 94 | 100 | 200 | –
C=CC[C@H]1OC(=O)CCNC(=O)[C@H](C)N(C)C(=O)[C@H](C(C)C)N(C)C(=O)[C@H]([C@@H](C)CC)NC(=O)[C@@H]2CCCN2C1=O [Destruxin A] (cyclo([dLac(3-vinyl)]PI[NMeV][NMeA][βAla])) | 20 | – | – | – | – | – | – | – | – | – | – | –
eel calcitonin | – | – | – | – | – | – | – | – | – | – | – | the inhibitory effect of destruxin E is higher than that of eel calcitonin
